From patent US20100210654A1, “NOVEL P2Y12 RECEPTOR ANTAGONISTS” (RHEINISCHE FRIEDRICH-WILHELMS UNIVERSITÄT BONN, priority 2007, published 2010)

biological target: T1, human platelet P2Y12 receptors (Homo sapiens, UniProt Q9H244); experiment: Radioligand binding assay with [3H]PSB-0413 at human platelet membranes; conditions: not given
T1 construct: Membranes were prepared from human outdated platelets from the blood bank; from tissue; host or cells: human platelets (University of Bonn blood bank), membrane preparation
T1 sequence (Q9H244 whole entry): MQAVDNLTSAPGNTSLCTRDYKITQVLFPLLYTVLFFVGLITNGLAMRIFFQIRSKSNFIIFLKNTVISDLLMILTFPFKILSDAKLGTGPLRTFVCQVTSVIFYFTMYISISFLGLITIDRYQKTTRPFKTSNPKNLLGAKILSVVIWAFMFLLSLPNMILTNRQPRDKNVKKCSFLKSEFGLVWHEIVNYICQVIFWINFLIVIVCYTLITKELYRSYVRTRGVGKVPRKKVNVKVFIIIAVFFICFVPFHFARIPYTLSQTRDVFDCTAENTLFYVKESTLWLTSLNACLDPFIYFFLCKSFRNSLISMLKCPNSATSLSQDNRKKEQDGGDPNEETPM
Description: Membranes were prepared from human outdated platelets from the blood bank. Outdated human platelets were obtained from the University of Bonn blood bank 4-5 days after donation. Platelet rich plasma was washed by centrifugation (10 min at 1000 g) in a buffer consisting of 50 mM Tris-HCl, pH 7.4, 5 mM EDTA and 150 mM NaCl. The supernatant was centrifuged twice (48400 g for 60 min) and the resultant platelet pellet were resuspended in 5 mM Tris-HCl (pH 7.4) containing 5 mM EDTA. The platelets were homogenized by a homogenizer. The final suspension was stored frozen as multiple aliquots at −80° C. until needed. Protein concentrations were determined by the method of Lowry using a Sigma Chemie protein assay kit.
Radioligand binding assays were performed using 5 nM [^3H]PSB-0413 and 100 μg of protein in Tris-HCl buffer 50 mM, pH 7.4, as previously described. (El-Tayeb, A., Griessmeier, K. J, Müller, C. E. Bioorg. Med. Chem. Lett. 2005, 15, 5450-52; Atzler, K. Doctoral Thesis, University of Bonn, 2006). Competition by 10 μM of test compound was initially determined. The mixture was incubated for 1 h at rt followed by filtration through GF/B filters. Nonspecific binding was determined with 1 mM ADP or 250 μM RB 2. […] At least three independent experiments were performed each in triplicate.
The data were analyzed using GraphPad Prism 4.0 (GraphPad Software, Inc., San Diego, Calif.).

Structure (SMILES) | Ki
Nc1c(S(=O)(=O)O)cc(Nc2ccc(S(=O)(=O)O)c(Nc3nc(Cl)nc(Cl)n3)c2)c2c1C(=O)c1ccccc1C2=O [Entry 31] | 17.1 ± 7.8 µM

same assay, conditions: human platelet membranes, 5 nM [3H]PSB-0413, 1 h at rt; mean ± SEM; read-out: hP2Y12 Receptor Ki [μM ± SEM] vs. [3H]PSB-0413

Structure (SMILES) | Ki
Nc1c(S(=O)(=O)O)cc(Nc2ccc(S(=O)(=O)O)cc2)c2c1C(=O)c1ccccc1C2=O [Entry 2] | 3.13 ± 0.39 µM
Nc1cc(Nc2cc(S(=O)(=O)O)c(N)c3c2C(=O)c2ccccc2C3=O)ccc1S(=O)(=O)O [Entry 4] | 2.1 ± 0.47 µM
Nc1cc(Nc2cc(S(=O)(=O)O)c(N)c3c2C(=O)c2ccccc2C3=O)cc(C(=O)O)c1 [Entry 6] | 7.07 ± 1.7 µM
Nc1c(S(=O)(=O)O)cc(Nc2cc(Cl)ccc2C(=O)O)c2c1C(=O)c1ccccc1C2=O [Entry 7] | 12.2 ± 0.3 µM
Nc1c(S(=O)(=O)O)cc(Nc2ccccc2C(=O)O)c2c1C(=O)c1ccccc1C2=O [Entry 8] | 25.1 ± 7 µM
Nc1ccc(Nc2cc(S(=O)(=O)O)c(N)c3c2C(=O)c2ccccc2C3=O)c(S(=O)(=O)O)c1 [Entry 9] | 19.7 ± 8.27 µM
Nc1c(S(=O)(=O)O)cc(Nc2ccc(Cl)cc2C(=O)O)c2c1C(=O)c1ccccc1C2=O [Entry 10] | 12.3 ± 1.7 µM
Nc1c(S(=O)(=O)O)cc(Nc2ccccc2O)c2c1C(=O)c1ccccc1C2=O [Entry 11] | ~10 µM
Nc1c(S(=O)(=O)O)cc(Nc2ccc(O)cc2)c2c1C(=O)c1ccccc1C2=O [Entry 12] | ~10 µM
Nc1c(S(=O)(=O)O)cc(Nc2ccc(Cc3ccccc3)cc2)c2c1C(=O)c1ccccc1C2=O [Entry 13] | 0.614 µM
Nc1cccc(Nc2cc(S(=O)(=O)O)c(N)c3c2C(=O)c2ccccc2C3=O)c1 [Entry 14] | > 10 µM
Nc1c(S(=O)(=O)O)cc(Nc2ccc(Sc3ccccc3)cc2)c2c1C(=O)c1ccccc1C2=O [Entry 19] | 0.884 ± 0.525 µM
Nc1c(S(=O)(=O)O)cc(Nc2ccc(Oc3ccccc3)c(S(=O)(=O)O)c2)c2c1C(=O)c1ccccc1C2=O [Entry 22] | 0.063 ± 0.009 µM
Nc1c(S(=O)(=O)O)cc(Nc2ccc(Nc3ccccc3)c(S(=O)(=O)O)c2)c2c1C(=O)c1ccccc1C2=O [Entry 24] | 0.0249 ± 0.0032 µM
Cc1cc(Nc2ccc(Nc3ccccc3)c(S(=O)(=O)O)c2)c2c(c1N)C(=O)c1ccccc1C2=O [Entry 30] | 0.541 µM
Nc1c(S(=O)(=O)O)cc(Nc2ccc(Nc3nc(Cl)nc(Cl)n3)c(S(=O)(=O)O)c2)c2c1C(=O)c1ccccc1C2=O [Entry 32] | 2.45 ± 1 µM
Nc1c(S(=O)(=O)O)cc(Nc2cc(Nc3nc(Cl)nc(Cl)n3)cc(C(=O)O)c2)c2c1C(=O)c1ccccc1C2=O [Entry 34] | 3.76 ± 1.03 µM
Nc1c(S(=O)(=O)O)cc(Nc2ccc(Nc3nc(Cl)nc(Cl)n3)cc2)c2c1C(=O)c1ccccc1C2=O [Entry 35] | 1.9 ± 0.24 µM
Nc1c(S(=O)(=O)O)cc(Nc2ccc(Nc3ncccn3)cc2)c2c1C(=O)c1ccccc1C2=O [Entry 36] | ~10 µM
Nc1c(S(=O)(=O)O)cc(Nc2ccc(Nc3nc(O)nc(O)n3)c(S(=O)(=O)O)c2)c2c1C(=O)c1ccccc1C2=O [Entry 38] | ~10 µM
Nc1c(S(=O)(=O)O)cc(Nc2ccc(Nc3nc(O)nc(O)n3)cc2S(=O)(=O)O)c2c1C(=O)c1ccccc1C2=O [Entry 39] | > 10 µM

tested on: not given; experiment: not given; conditions: not given

Structure (SMILES) | melting point
Nc1c(S(=O)(=O)[O-])cc(Nc2ccccc2O)c2c1C(=O)c1ccccc1C2=O.[Na+] | > 300 °C
Nc1c(S(=O)(=O)[O-])cc(Nc2ccc(O)cc2)c2c1C(=O)c1ccccc1C2=O.[Na+] | > 300 °C
Nc1ccc(Nc2cc(S(=O)(=O)[O-])c(N)c3c2C(=O)c2ccccc2C3=O)cc1.[Na+] | > 300 °C
Nc1cc(Nc2cc(S(=O)(=O)[O-])c(N)c3c2C(=O)c2ccccc2C3=O)cc(C(=O)O)c1.[Na+] | > 300 °C
Nc1c(S(=O)(=O)[O-])cc(Nc2ccc(S(=O)(=O)[O-])cc2)c2c1C(=O)c1ccccc1C2=O.[Na+].[Na+] | > 300 °C
Nc1cccc(Nc2cc(S(=O)(=O)[O-])c(N)c3c2C(=O)c2ccccc2C3=O)c1.[Na+] | > 300 °C
Nc1c(S(=O)(=O)[O-])cc(Nc2cc(Cl)ccc2C(=O)O)c2c1C(=O)c1ccccc1C2=O.[Na+] | > 300 °C
Nc1c(S(=O)(=O)[O-])cc(Nc2ccccc2C(=O)O)c2c1C(=O)c1ccccc1C2=O.[Na+] | > 300 °C
